Data from patent publication US11708353B2, “Inhibitors of prolyl-tRNA-synthetase” (The General Hospital Corporation, priority 2018, dated 2023).
Like-named read-outs stand apart in the source and are kept apart here.

Columns and labels:
[1] = tested on: P. falciparum Dd2 wildtype; assay: SYBR Green I asexual blood stage growth assay, Dd2 wildtype; type: cell-based; conditions: Plasmodium falciparum
Method: (§1) P. falciparum parasite growth was determined using a fluorescence assay based on the SYBR Green I method according to previously reported protocols (see e.g., Johnson et al, Antimicrob. Agents Chemother. 2007, 51(6):1926-1933). P. falciparum parasites were seeded in 384-well plates at 1% hematocrit and 1% starting parasitemia. Growth was assessed by SYBR Green staining of parasite DNA after 72-hour exposure to compound. All dose-response assays were carried out with 12-point dilutions in technical triplicate. Compounds were dispensed with an HP D300 Digital Dispenser (Hewlett Packard, Palo Alto, Calif., USA). Fluorescence intensity measurements were performed on a SpectraMax M5 (Molecular Devices, Sunnyvale, Calif., USA) and analyzed in GraphPad Prism version 7 (GraphPad Software, La Jolla, Calif., USA) after background subtraction and normalization to control wells. EC50 values were determined using a four-parameter nonlinear regression curve fit from at least three assays and are represented as mean±standard deviation. Statistical significance was determined by the Mann Whitney test.

P. falciparum = conditions: read-out: EC50 against P. falciparum in whole-cell assays; cited from earlier work
eIF2α phosphorylation = conditions: cited from earlier work
[2] = tested on: P. falciparum Dd2 (>100× resistence to halofuginone); assay: SYBR Green I asexual blood stage growth assay, Dd2 >100x halofuginone-resistant; type: cell-based; conditions: Plasmodium falciparum, DD2, 72 h, read-out: P. falciparum Dd2 (>100× resistence to halofuginone) Asexual blood stage IC50 (nM)
Method: as §1

[3] = target: T1, Plasmodium falciparum cytoplasmic prolyl tRNA synthetase (PfcPRS) (Plasmodium falciparum, UniProt Q8I5R7); assay: Thermal shift (differential scanning fluorimetry) assay; type: binding
T1 sequence (Q8I5R7 1-746): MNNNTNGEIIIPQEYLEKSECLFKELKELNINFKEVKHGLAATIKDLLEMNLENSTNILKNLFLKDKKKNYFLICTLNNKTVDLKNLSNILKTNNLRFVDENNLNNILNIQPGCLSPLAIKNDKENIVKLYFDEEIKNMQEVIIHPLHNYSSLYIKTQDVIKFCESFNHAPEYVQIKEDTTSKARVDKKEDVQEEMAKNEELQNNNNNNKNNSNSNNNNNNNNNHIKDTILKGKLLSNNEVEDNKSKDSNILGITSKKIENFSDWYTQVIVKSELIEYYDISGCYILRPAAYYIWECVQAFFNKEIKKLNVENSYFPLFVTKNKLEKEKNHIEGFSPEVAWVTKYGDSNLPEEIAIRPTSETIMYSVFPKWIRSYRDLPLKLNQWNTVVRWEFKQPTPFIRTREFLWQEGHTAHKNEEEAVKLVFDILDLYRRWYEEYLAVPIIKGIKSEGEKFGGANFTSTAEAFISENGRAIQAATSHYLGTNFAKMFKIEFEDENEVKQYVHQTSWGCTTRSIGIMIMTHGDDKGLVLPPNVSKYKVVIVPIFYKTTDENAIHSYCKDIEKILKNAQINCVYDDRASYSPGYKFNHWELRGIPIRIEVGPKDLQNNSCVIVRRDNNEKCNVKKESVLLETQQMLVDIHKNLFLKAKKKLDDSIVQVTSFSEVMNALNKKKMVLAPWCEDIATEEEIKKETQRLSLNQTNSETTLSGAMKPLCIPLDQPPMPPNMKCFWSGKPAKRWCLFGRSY
Method: Thermal shift assays were performed in tetricate as previously described (Hewitt et al., 2016). 12.5 μL solutions of 0.14 mg/mL purified recombinant Plasmodium falciparum cytoplasmic prolyl tRNA synthetase (PfcPRS) in a buffer containing […] test compounds (1 mM Compound 18+1 mM Proline; 1 mM Compound 18+0 mM Proline; or DMSO vehicle control), 25 mM HEPES, pH 7.0, 100 mM NaCl, 5 v/v % glycerol, 1 mM TCEP, and optionally 1 mM Proline were incubated at 37° C. for 2 hours in 96 well PCR plates. To this was added 2.5 μL 8× SYRPO Orange Dye (Applied Biosystems 4461141) and 5 μL Protein Thermal Shift Buffer (Applied Biosystems 4461335). Protein stability for protein samples containing the test compounds was compared with apo protein samples by measuring an increase in fluorescence as detected on an Applied Biosystems SDS 7500 Fast qPCR Thermocycler from 25° C. to 99° C. at half degree increments.

[4] = tested on: P. falciparum Dd2 (10× resistence to halofuginone); assay: SYBR Green I asexual blood stage growth assay, Dd2 10x halofuginone-resistant; type: cell-based; conditions: Plasmodium falciparum, DD2, 72 h, read-out: P. falciparum Dd2 (10× resistence to halofuginone) Asexual blood stage IC50 (nM)
Method: as §1

wild-type 3D7 parasites = assay: Antiparasitic activity in wild-type 3D7 parasites; type: cell-based; conditions: Plasmodium falciparum, 3D7, read-out: EC50 in wild-type parasites
Method: as §1, with “test. […]” for “test.”

[5] = tested on: HFG-tolerant 3D7 parasites; assay: Antiparasitic activity in HFG-tolerant 3D7 parasites; type: cell-based; conditions: Plasmodium falciparum, 3D7, read-out: EC50 in HFG-tolerant parasites
Method: as §1, with “test. […]” for “test.”

[6] = DD2, 72-hour exposure, SYBR Green, read-out: P. falciparum Dd2 wildtype Asexual blood stage EC50

EC50 [1, 6]	Compound	further results
> 10000 nM	O=C(O)CCCC(=O)Nc1nccnc1C(=O)NC1Cc2ccccc2C1 [Compound 5]	
> 10000 nM	CNc1nccnc1C(=O)NC1Cc2ccccc2C1 [Compound 31]	
9960 nM	NC(=O)Nc1nccnc1C(=O)NC1Cc2ccccc2C1 [Compound 26]	
> 10000 nM	O=C(NC1Cc2ccccc2C1)c1nccnc1NC(=O)C1CCOCC1 [Compound 20]	
> 10000 nM	O=C(NCCCCNC(=O)[C@@H]1CCCN1)Nc1nccnc1C(=O)NC1Cc2ccccc2C1 [Compound 4]	
> 10000 nM	O=C(O)c1nccnc1C(=O)NC1Cc2ccccc2C1 [Compound 27]	
	Nc1ncnc2c1ncn2[C@@H]1O[C@H](COS(=O)(=O)NC(=O)[C@@H]2CCCN2)[C@@H](O)[C@H]1O [ProSA, L-prolyl-sulfamoyl adenosine]	EC50 (P. falciparum): 0.097 µM; eIF2α phosphorylation (eIF2α phosphorylation): induces eIF2α phosphorylation
627 nM	O=C(NC1Cc2ccccc2C1)c1nccnc1N(C(=O)C1CCCCC1)C(=O)C1CCCCC1 [Compound 22]	
9520 nM	CC(C)(C)OC(=O)NC1(C(=O)Nc2nccnc2C(=O)NC2Cc3ccccc3C2)CCCCC1 [Compound 32]	
> 10000 nM	O=C(NC1Cc2ccccc2C1)c1nccnc1NS(=O)(=O)C1CCCCC1 [Compound 17]	
3540 nM	O=C(NC1Cc2ccccc2C1)c1nccnc1NC(=O)C1CCC1 [Compound 9]	
> 10000 nM	Nc1nccnc1C(=O)NC1CCCCC1 [Compound 29]	
6200 nM	O=C(NC1Cc2ccccc2C1)c1nccnc1NC(=O)N1CCCC(C(=O)O)C1 (stereo not drawn) [Compound 11]	
73 nM	C[C@@H]1CCC[C@H](C)N1C(=O)Nc1nccnc1C(=O)NC1Cc2ccccc2C1 [Compound 14]	
9540 nM	O=C(NC1CCCCC1)c1nccnc1NC(=O)C1Cc2ccccc2C1 [Compound 30]	
> 10000 nM	NCCCCNC(=O)Nc1nccnc1C(=O)NC1Cc2ccccc2C1 [Compound 1]	
> 10000 nM	O=C(Nc1nccnc1C(=O)NC1Cc2ccccc2C1)c1ccccc1 [Compound 24]	
8270 nM	O=C(NC1Cc2ccccc2C1)c1nccnc1NC(=S)NC1CCCCC1 [Compound 35]	
> 10000 nM	O=C(C[C@H]1NCCC[C@@H]1OC(=O)NCCCCNC(=O)Nc1nccnc1C(=O)NC1Cc2ccccc2C1)Cn1cnc2cc(Br)c(Cl)cc2c1=O [Compound 2]	

EC50 [1, 6]	Compound	further results
> 10000 nM	Nc1nccnc1C(=O)NC1Cc2ccccc2C1 [Compound 15]	
499 nM	CC(C)N(C(=O)Nc1nccnc1C(=O)NC1Cc2ccccc2C1)C(C)C [Compound 8]	
4940 nM	O=C(NC1Cc2ccccc2C1)c1nccnc1NC(=O)N(C1CCCCC1)C1CCCCC1 [Compound 13]	
1350 nM	O=C(NC1Cc2ccccc2C1)c1nccnc1NC(=O)C1(O)CCCCC1 [Compound 21]	
386 nM	CC(C)(C)OC(=O)N[C@H]1CC[C@@H](C(=O)Nc2nccnc2C(=O)NC2Cc3ccccc3C2)CC1 [Compound 23]	
3790 nM	CC(C)(C)OC(=O)N1CCCCC1C(=O)Nc1nccnc1C(=O)NC1Cc2ccccc2C1 (stereo not drawn) [Compound 6]	
> 10000 nM	CC(C)(C)OC(=O)N1CCC[C@H]1C(=O)NCCCCNC(=O)Nc1nccnc1C(=O)NC1Cc2ccccc2C1 [Compound 3]	
> 10000 nM	O=C(Nc1nccnc1C(=O)NC1Cc2ccccc2C1)NC12CC3CC(CC(C3)C1)C2 [Compound 39]	
1830 nM	CN1CCN(C(=O)Nc2nccnc2C(=O)NC2Cc3ccccc3C2)CC1 [Compound 10]	
> 10000 nM	O=C(NC1CCCCC1)c1nccnc1C(=O)NC1Cc2ccccc2C1 [Compound 28]	
> 10000 nM	CN(C(=O)c1nccnc1N)C1Cc2ccccc2C1 [Compound 38]	
> 10000 nM	O=C(NC1Cc2ccccc2C1)c1nccnc1NCC1CCCCC1 [Compound 37]	
> 10000 nM	O=C(Nc1nccnc1C(=O)NC1Cc2ccccc2C1)NC1CCCCC1 [Compound 36]	
4840 nM	NC1(C(=O)Nc2nccnc2C(=O)NC2Cc3ccccc3C2)CCCCC1 [Compound 34]	
> 10000 nM	Nc1nccnc1C(=O)NCc1ccc(Cl)cc1 [Compound 12]	
173 nM	CC1(C(=O)Nc2nccnc2C(=O)NC2Cc3ccccc3C2)CCCCC1 [Compound 19]	
2990 nM	O=C(NC1Cc2ccccc2C1)c1nccnc1NC(=O)C1CCCCN1 (stereo not drawn) [Compound 7]	
> 10000 nM	O=c1[nH]c2nccnc2c(=O)n1C1Cc2ccccc2C1 [Compound 25]	
	O=C(CCCC(=O)NC1(C(=O)Nc2nccnc2C(=O)NC2Cc3ccccc3C2)CCCCC1)NCCOCCOCCNC(=O)COc1cccc2c1C(=O)N(C1CCC(=O)NC1=O)C2=O (stereo not drawn) [Compound 33]	EC50 ([1]; DD2, 72 h, read-out: P. falciparum Dd2 wildtype Asexual blood stage EC50 (nM)): 8540 nM

Compound	EC50 [1, 6]	further results
O=C(NC1Cc2ccccc2C1)c1nccnc1NC(=O)N1CCCCC1 [Compound 18]	63 nM	IC50 [2]: 74 nM; Binding mode to PfcPRS relative to proline [3]: binds PfcPRS in proline-uncompetitive fashion; Effect of proline on binding to PfcPRS (differential scanning fluorimetry) ([3]; with 1 mM vs 0 mM Proline, FIG. 3C): Pro potentiates Compound 18 binding to PfcPRS; IC50 [4]: 130 nM; EC50 (wild-type 3D7 parasites): 0.078 µM; EC50 [5]: 0.13 µM
O=C(NC1Cc2ccccc2C1)c1nccnc1NC(=O)C1CCCCC1 [Compound 16]	544 nM	IC50 [4]: 1160 nM
